Experimental data taken from patent US9427468B2, “Compositions and methods for diagnosing and treating community-acquired methicillin-resistant Staphylococcus aureus” (priority 2007, dated 2016).
≈ marks a conversion by molar mass, not a printed value.

Assays:
COL wild-type = assay: MIC by microdilution (CLSI); format: cell-based, Staphylococcus aureus
From the text: (§1) The present invention was described based on a series of experiments examining the biological basis for CA-MRSA strains versus HA-MRSA strains, focusing on the role of PBPs in CA-MRSA and generally in β-lactam resistance. Experiments were first performed using mutants of various PBPs. In-frame deletion mutants of the genes encoding PBP3 (MW1504) and PBP4 (MW0604), pbp3 and pbp4 respectively, were generated in the CA-MRSA strain MW2 and in HA-MRSA strain COL using the temperature-sensitive allelic replacement vector pMAD (Arnaud, M. et al. 2004. Appl. Environ. Microbiol. 70:6887-6891). PBP4 was also deleted in the HA-MRSA strains Mu50 and N315 and in the CA-MRSA strain USA300. […] Minimum inhibitory concentrations (MICs) were determined according to the Clinical and Laboratory Standards Institute and are a standard method for defining antibiotic efficacy against different organisms. Bacteria, grown to an OD650=1, were added to cation-supplemented Mueller Hinton broth (CSMHB) to achieve a final concentration of 5×10^5 CFU/ml.
(§2) Although PBP4, similar to PBP2A, binds with low affinity to many β-lactams, PBP4 binds cefoxitin, a semi-synthetic β-lactam derived from cephamycin C, with high affinity (Nair, S. R. and C. E. Cherubin. 1978. Antimicrob. Agents Chemother. 14:866-875).
(§3) Minimum inhibitory concentrations and minimum bactericidal concentrations (MIC and MBC, respectively) were determined for each isolate in triplicate by microdilution techniques with an inoculum of 5×10^5 CFU/ml according to the Clinical and Laboratory Standards Institute guidelines. Aliquots (5 μl) from clear wells were plated onto TSA drug-free plates for the determination of MBCs, followed by incubation at 37° C. for 24 and 48 hours. For the mutant strains, each one of the three clones was tested. MIC data were reported as median values from at least three independent experiments for each antibiotic. Also, strains containing pEPSA5-based plasmids were tested with and without xylose induction, but chloramphenicol was not added to avoid interference with beta-lactam resistance evaluation. […] The correct inocula were confirmed by plating serial dilutions on agar.

MW2 (USA400) wild-type = assay: MIC by microdilution (CLSI); format: cell-based, Staphylococcus aureus
From the text: as §1, §2, §3

USA300 wild-type = assay: MIC by microdilution (CLSI); format: cell-based, Staphylococcus aureus
From the text: as §1, §2, §3

Mu50 wild-type = assay: MIC by microdilution (CLSI); format: cell-based, Staphylococcus aureus
From the text: as §1, with “Experiments” for “The present invention was described based on a series of experiments examining the biological basis for CA-MRSA strains versus HA-MRSA strains, focusing on the role of PBPs in CA-MRSA and generally in β-lactam resistance. Experiments”
as §3

PBP4 = conditions: cited from earlier work
N315 wild-type = assay: MIC by microdilution (CLSI); format: cell-based, Staphylococcus aureus
From the text: as §1, §3

MW2 ex Δpbp4 = assay: MIC by microdilution (CLSI); format: cell-based, Staphylococcus aureus
From the text: as §1, §3

[1] = tested on: MW2 ex (MW2 cured of plasmid pMW2); assay: MIC by microdilution (CLSI); format: cell-based; conditions: Staphylococcus aureus, Table 1
From the text: as §1, with “Experiments” for “The present invention was described based on a series of experiments examining the biological basis for CA-MRSA strains versus HA-MRSA strains, focusing on the role of PBPs in CA-MRSA and generally in β-lactam resistance. Experiments”
as §3

MW2 ex Δpbp3 = assay: MIC by microdilution (CLSI); format: cell-based; conditions: Staphylococcus aureus, read-out: MICs
From the text: as §1, with “Experiments” for “The present invention was described based on a series of experiments examining the biological basis for CA-MRSA strains versus HA-MRSA strains, focusing on the role of PBPs in CA-MRSA and generally in β-lactam resistance. Experiments”
as §3

COL HA-MRSA = assay: Minimum bactericidal concentration (MBC); format: cell-based, Staphylococcus aureus; conditions: for combination: MBC of oxacillin with ¼ MIC cefoxitin
Method: as §3

MRSA252 HA-MRSA [2] = assay: Minimum bactericidal concentration (MBC); format: cell-based, Staphylococcus aureus; conditions: for combination: MBC of oxacillin with ¼ MIC cefoxitin
Method: as §3

Mu50 HA-MRSA/VISA = assay: Minimum bactericidal concentration (MBC); format: cell-based, Staphylococcus aureus; conditions: for combination: MBC of oxacillin with ¼ MIC cefoxitin
Method: as §3

MRSA252 HA-MRSA [3] = assay: MIC and synergy assay; format: cell-based, Staphylococcus aureus; conditions: for combination: MIC of oxacillin with ¼ MIC cefoxitin
Method: as §3

MW2 Δpbp3/4 = assay: MIC by microdilution (CLSI); format: cell-based, Staphylococcus aureus; conditions: Table 1, MW2 Δpbp3/4
From the text: as §1, §3

USA300 Δpbp4::pbp4 = assay: MIC by microdilution (CLSI); format: cell-based, Staphylococcus aureus; conditions: Table 1; USA300 Δpbp4::pbp4 (complemented)
From the text: as §1, §3

MW2 Δpbp4 = assay: MIC by microdilution (CLSI); format: cell-based, Staphylococcus aureus
From the text: as §1, §3

MW2 Δpbp3 = assay: MIC by microdilution (CLSI); format: cell-based, Staphylococcus aureus; conditions: Table 1; MW2 Δpbp3
From the text: as §1, §3

USA300 Δpbp4 = assay: MIC by microdilution (CLSI); format: cell-based, Staphylococcus aureus
From the text: as §1, §3

MW2 Δpbp4::pbp4 = assay: MIC by microdilution (CLSI); format: cell-based, Staphylococcus aureus; conditions: Table 1; MW2 Δpbp4::pbp4 (complemented)
From the text: as §1, §3

[4] = Staphylococcus aureus, read-out: MICs

## CO[C@@]1(NC(=O)Cc2cccs2)C(=O)N2C(C(=O)O)=C(COC(N)=O)CS[C@@H]21 [CX, cefoxitin]
COL wild-type; [4]
  MIC: 128 µg/mL (≈ 299 µM)
MW2 (USA400) wild-type; Staphylococcus aureus, USA400, read-out: MICs
  MIC: 64 µg/mL (≈ 150 µM)
USA300 wild-type; Staphylococcus aureus, USA300, read-out: MICs
  MIC: 64 µg/mL (≈ 150 µM)
Mu50 wild-type; [4]
  MIC: 256 µg/mL (≈ 599 µM)
PBP4
  affinity for PBP4: high affinity
N315 wild-type; [4]
  MIC: 64 µg/mL (≈ 150 µM)
MW2 ex Δpbp4; [4]
  MIC: 16 µg/mL (≈ 37.4 µM)
[1]
  MIC: 16 µg/mL (≈ 37.4 µM)
MW2 ex Δpbp3
  MIC: 32 µg/mL (≈ 74.9 µM)

## Cc1onc(-c2ccccc2)c1C(=O)N[C@@H]1C(=O)N2[C@@H]1SC(C)(C)[C@@H]2C(=O)O [OX, oxacillin]
COL HA-MRSA
  MBC 48 hr: >256 µg/mL
MRSA252 HA-MRSA [2]
  MBC 48 hr: >256 µg/mL
Mu50 HA-MRSA/VISA
  MBC 48 hr: >256 µg/mL
COL wild-type; COL, 48 hr, for combination: MIC of oxacillin with ¼ MIC cefoxitin
  MICs 48 hr: 256 µg/mL
COL wild-type; Table 1, COL wild-type
  MICs: 256 µg/mL
MW2 (USA400) wild-type; MW2, 48 hr, for combinations: MIC of oxacillin with ¼ MIC of second drug
  MICs 48 hr: 64 µg/mL
MW2 (USA400) wild-type; Table 1, MW2 (USA400) wild-type
  MICs: 64 µg/mL
USA300 wild-type; Table 1, USA300 wild-type
  MICs: 64 µg/mL
USA300 wild-type; USA300, 48 hr, for combinations: MIC of oxacillin with ¼ MIC of second drug
  MICs 48 hr: 64 µg/mL
MRSA252 HA-MRSA [3]
  MICs 48 hr: 256 µg/mL
Mu50 wild-type; Mu50, 48 hr, for combination: MIC of oxacillin with ¼ MIC cefoxitin
  MICs 48 hr: 256 µg/mL
Mu50 wild-type; Table 1, Mu50 wild-type
  MICs: 256 µg/mL
MW2 Δpbp3/4
  MICs: 4 µg/mL
MW2 Δpbp3/4; listed as oxacillin
  MICs: 1 µg/mL
N315 wild-type; Table 1, N315 wild-type
  MICs: 256 µg/mL
USA300 Δpbp4::pbp4
  MICs: 64 µg/mL
MW2 Δpbp4; MW2 Δpbp4 versus MW2
  reduction in MIC on loss of pbp4: 16 fold
MW2 Δpbp4; Table 1, MW2 Δpbp4
  MICs: 4 µg/mL
MW2 Δpbp4; pbp4 mutant of MW2 with pbp2 expressed from inducible plasmid pEPSA5
  MICs: 4 µg/mL
MW2 Δpbp3
  MICs: 64 µg/mL
MW2 ex Δpbp4; MW2 ex Δpbp4 versus MW2 ex
  reduction in oxacillin MIC for the pbp4 mutant: 64 fold
MW2 ex Δpbp4; Table 1, MW2 ex Δpbp4
  MICs: 2 µg/mL
USA300 Δpbp4; Table 1, USA300 Δpbp4
  MICs: 4 µg/mL
USA300 Δpbp4; USA300 Δpbp4 versus USA300
  reduction in MIC on loss of pbp4: 16 fold
USA300 Δpbp4; pbp4 mutant of USA300 with pbp2 expressed from inducible plasmid pEPSA5
  MICs: 4 µg/mL
MW2 Δpbp4::pbp4
  MICs: 64 µg/mL
